Earlier results as cited in PMC3674230 (Chemical communications (Cambridge, England), 2012).

Tested on: Zn(II)-dependent matrix metalloproteinases (MMP)
Settings: direct metal coordination

In the case of `CC(=O)NO` [acetohydroxamic acid], the IC50 is listed as about 25 mM.
